According to patent US20250170136A1, “1,2,4-TRIAZIN-3(2H)-ONE COMPOUNDS FOR THE TREATMENT OF HYPERPROLIFERATIVE DISEASES” (BAYER AKTIENGESELLSCHAFT, priority 2019, published 2025):
Marks after values point to notes of the source that are not given here.

Assays:
[1] = test system: IGR-37 melanoma xenograft; experiment: In vivo xenotransplantation model of human cancer; parameters: species or system mice; details: for T/C: IGR-37 Melanoma, mean final tumor weight treatment vs control, study end
Description: The anti-tumor activity of Example 1, ((5S)-5-methyl-6-{3-(trifluoromethyl)-4-[3-(trifluoromethyl)-1H-pyrazol-1-yl]phenyl}-4,5-dihydro-1,2,4-triazin-3(2H)-one), was examined in murine xenotransplantation models of human cancer. For this purpose, mice were implanted subcutaneously with tumor cells. At a mean tumor size of 20-40 mm^2 animals were randomized into treatment and control groups (at least n=10 animals/group) and treatment started with vehicle only or Example 1 (formulation: 90% PEG400/10% Ethanol; application route: per os (“p.o.”), orally). The oral application volume was 10 ml/kg. In the case of twice daily treatments, the time interval between two applications per day was 6-7 h. The tumor size and the body weight were determined at least weekly. The tumor area was detected by means of an electronic caliper [length (mm)×width (mm)]. The experiment was ended when the tumors of the vehicle control reached the pre-determined ethical endpoint based on German and European animal welfare regulations. In vivo anti-tumor efficacy is presented as T/C ratio at study end (Treatment/Control; mean tumor area or weight of treatment group/mean tumor area or weight of control group) in Table 7. A compound having a T/C below 0.5 is defined as active (i.e., effective). Statistical analysis was assessed using SigmaStat software. A one-way analysis of variance was performed and differences to the control were compared by a pair-wise comparison procedure (Dunn's method).

human full length PDE3B = human full length PDE3B (Homo sapiens (Human), UniProt Q13370); experiment: PDE3B enzyme inhibition (3H-cAMP Scintillation Proximity Assay); type: biochemical; details: Sf9 cell extract, 60 min room temperature
human full length PDE3B, sequence (Q13370 whole entry): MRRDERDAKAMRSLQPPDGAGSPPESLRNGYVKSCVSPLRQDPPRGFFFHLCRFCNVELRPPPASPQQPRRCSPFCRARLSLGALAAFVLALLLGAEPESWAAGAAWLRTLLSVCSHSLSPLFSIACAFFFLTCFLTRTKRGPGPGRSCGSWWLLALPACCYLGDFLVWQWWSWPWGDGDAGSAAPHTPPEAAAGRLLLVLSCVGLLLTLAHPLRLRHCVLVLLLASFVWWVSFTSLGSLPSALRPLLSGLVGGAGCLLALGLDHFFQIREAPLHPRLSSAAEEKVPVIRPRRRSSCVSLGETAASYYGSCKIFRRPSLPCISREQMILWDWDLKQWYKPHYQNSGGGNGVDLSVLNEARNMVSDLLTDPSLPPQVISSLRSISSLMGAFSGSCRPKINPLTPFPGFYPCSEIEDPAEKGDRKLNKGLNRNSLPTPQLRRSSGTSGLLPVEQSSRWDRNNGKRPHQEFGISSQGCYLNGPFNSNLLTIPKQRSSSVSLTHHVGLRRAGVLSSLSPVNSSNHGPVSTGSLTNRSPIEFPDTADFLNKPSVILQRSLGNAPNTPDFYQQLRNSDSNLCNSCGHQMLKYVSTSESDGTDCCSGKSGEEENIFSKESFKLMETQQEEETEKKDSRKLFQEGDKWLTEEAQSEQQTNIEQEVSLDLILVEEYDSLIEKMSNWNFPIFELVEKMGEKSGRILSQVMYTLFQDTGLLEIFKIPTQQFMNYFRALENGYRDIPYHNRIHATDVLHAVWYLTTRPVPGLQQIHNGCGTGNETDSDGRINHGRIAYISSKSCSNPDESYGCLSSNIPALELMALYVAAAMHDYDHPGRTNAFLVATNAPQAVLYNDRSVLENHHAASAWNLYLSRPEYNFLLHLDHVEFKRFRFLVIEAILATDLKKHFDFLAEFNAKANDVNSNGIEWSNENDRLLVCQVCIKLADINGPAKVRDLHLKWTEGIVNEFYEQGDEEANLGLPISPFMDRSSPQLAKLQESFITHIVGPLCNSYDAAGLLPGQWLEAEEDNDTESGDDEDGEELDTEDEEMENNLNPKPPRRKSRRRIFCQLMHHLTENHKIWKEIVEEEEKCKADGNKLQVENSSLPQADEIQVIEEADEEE
Method: (§1) The commercially available 3H-cAMP Scintillation Proximity Assay (SPA, Perkin Elmer) system was used for enzyme inhibition studies. For the determination of the in vitro effect of example compounds on the PDE3B reactions 2 μl of the respective example compound solution in DMSO (serial dilutions) were placed in wells of microtiter plates (Isoplate-96/200W; Perkin Elmer). 50 μl of a dilution of PDE3B cell extract from Sf9 cells overexpressing human full length PDE3B (SB Drug Discovery, UK) in buffer A (50 mM Tris/HCl pH 7.5, 8.3 mM MgCl2, 1.7 mM EDTA, 0.2% BSA) was added. The dilution of the PDE3B cell extract was chosen such that the reaction kinetics was linear and less than 70% of the substrate was consumed (typical dilution 1:6000). The reaction was started by addition of 50 μl (0.025 μCi) of 1:2000 in buffer A w/o BSA diluted substrate [8-3H]adenosine 3′, 5′-cyclic phosphate (1 μCi/μl; Perkin Elmer). After incubation at room temperature for 60 min, the reaction was stopped by addition of 25 μl of a suspension containing 18 mg/ml yttrium scintillation proximity beads (Perkin Elmer) in water. The microtiter plates were sealed and measured in a Microbeta scintillation counter (PerkinElmer Wallac). IC50 values were determined from sigmoidal curves by plotting percentage PDE3B activity vs log compound concentration.

[2] = In vivo pharmacokinetics in rats (i.v.); details: Rat/male/Wistar, 0.5 mg/kg i.v., Plasma 95% + EtOH 4% + DMSO 1%
Method: (§2) For in vivo pharmacokinetic experiments test compounds were administered to female CD-1 mice, male Wistar rats, Beagle dogs or Cynomolgus monkeys intravenously at doses of 0.3 to 1 mg/kg formulated as solutions using solubilizers such as PEG400 in well-tolerated amounts.
(§3) Studies may also have been performed as cassette administrations of up to 3 compounds given together simultaneously in low doses.
(§4) For pharmacokinetics after intravenous administration test compounds were given in the female mice and male rat as i.v. bolus and in dogs and monkeys as short term infusion (15 min). Blood samples were taken e.g. at 2 min, 8 min, 15 min, 30 min, 45 min, 1 h, 2 h, 4 h, 6 h, 8 h and 24 h after dosing from the vena jugularis (mouse, rat) or vena saphena (dog, monkey). […] PK parameters were calculated by non-compartmental analysis using a PK calculation software (e.g. Phoenix WinNonlin®, Certara USA, Inc.).
(§5) PK parameters derived from concentration-time profiles after i.v.: CLplasma (in L/kg/h): Total plasma clearance of test compound calculated by dose (in μg/kg) divided by area under the concentration-time curve from t=0 h to infinity (extrapolated) (AUCinf in μg*h/L); CLblood: Total blood clearance of test compound: CLplasma*Cp/Cb (in L/kg/h) with Cp/Cb being the ratio of test compound concentrations in plasma and blood. […]

human full length PDE3A = human full length PDE3A (Homo sapiens (Human), UniProt Q14432); experiment: PDE3A enzyme inhibition (3H-cAMP Scintillation Proximity Assay); type: biochemical; details: Sf9 cell extract, 60 min room temperature
human full length PDE3A, sequence (Q14432 whole entry): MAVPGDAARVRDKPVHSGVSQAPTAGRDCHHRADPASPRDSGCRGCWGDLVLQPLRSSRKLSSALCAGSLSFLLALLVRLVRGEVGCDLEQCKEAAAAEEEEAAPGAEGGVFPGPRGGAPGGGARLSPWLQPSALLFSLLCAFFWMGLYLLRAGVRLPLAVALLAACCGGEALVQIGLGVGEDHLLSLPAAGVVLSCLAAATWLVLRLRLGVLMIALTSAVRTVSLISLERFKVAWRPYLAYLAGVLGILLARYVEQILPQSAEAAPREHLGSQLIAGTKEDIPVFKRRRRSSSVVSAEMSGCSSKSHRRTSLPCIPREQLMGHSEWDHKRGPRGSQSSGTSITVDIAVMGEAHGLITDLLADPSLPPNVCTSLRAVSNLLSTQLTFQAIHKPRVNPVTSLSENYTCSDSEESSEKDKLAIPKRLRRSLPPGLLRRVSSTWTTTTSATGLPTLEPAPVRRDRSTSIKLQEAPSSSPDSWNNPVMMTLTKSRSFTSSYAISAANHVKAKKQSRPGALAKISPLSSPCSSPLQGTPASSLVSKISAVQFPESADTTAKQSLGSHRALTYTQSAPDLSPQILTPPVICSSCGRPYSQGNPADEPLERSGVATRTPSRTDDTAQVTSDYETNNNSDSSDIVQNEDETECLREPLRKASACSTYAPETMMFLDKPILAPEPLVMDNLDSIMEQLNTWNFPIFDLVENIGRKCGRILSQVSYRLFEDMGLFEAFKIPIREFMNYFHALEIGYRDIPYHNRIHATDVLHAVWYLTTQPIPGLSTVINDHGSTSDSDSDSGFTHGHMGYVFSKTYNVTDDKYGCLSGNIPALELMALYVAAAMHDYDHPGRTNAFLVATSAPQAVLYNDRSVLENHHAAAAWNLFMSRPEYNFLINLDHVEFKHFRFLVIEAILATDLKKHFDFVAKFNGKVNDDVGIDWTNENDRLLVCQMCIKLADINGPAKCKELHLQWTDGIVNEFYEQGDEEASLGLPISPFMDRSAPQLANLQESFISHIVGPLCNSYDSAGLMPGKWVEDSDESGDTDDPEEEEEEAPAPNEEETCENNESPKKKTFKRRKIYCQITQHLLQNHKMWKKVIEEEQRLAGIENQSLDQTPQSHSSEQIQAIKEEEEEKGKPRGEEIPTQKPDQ
Method: as §1, with “PDE3A” for “PDE3B”, “1:5000).” for “1:6000).”

[3] = In vivo pharmacokinetics in mice (i.v.); parameters: species or system female CD-1 mice; details: Mouse/female/CD1, 0.5 mg/kg i.v., PEG400 60% + Water 35% + EtOH 5%
Method: as §2, §3, §4, §5

SMILES: C[C@@H]1NC(=O)NN=C1c1ccc(-n2ccc(C(F)(F)F)n2)c(C(F)(F)F)c1 [Example 1, (5S)-5-methyl-6-{3-(trifluoromethyl)-4-[3-(trifluoromethyl)-1H-pyrazol-1-yl]phenyl}-4,5-dihydro-1,2,4-triazin-3(2H)-one]
- T/C ([1]; 1 mg/kg 2QD p.o.): 0.06 *
- T/C ([1]; 2 mg/kg 2QD p.o.): 0.06 *
- T/C ([1]; 4 mg/kg 2QD p.o.): 0.06 *
- T/C ([1]; 4 mg/kg QD p.o.): 0.07 *
- anti-tumor efficacy (reduction of tumor area) ([1]; xenograft model of human tumors, melanoma, monotherapy): effective in reduction of tumor area in melanoma
- IC50 (human full length PDE3B): 81 nM
- CLblood [2]: 3.67 mL/min/kg
- IC50 (human full length PDE3A): 91 nM
- CLblood [3]: 3 mL/min/kg
